This is an account of results in patent US7833785B2, “Method for chemical dissociation of cells from physical surfaces” (priority 2004, dated 2010).

Series [1] in a line: in vitro. The following applies: mouse, Average Cell Viability.
Protocol: (§6) The viable cell concentration, viabilities, and fold increase in number of viable cells for mouse neurospheres exposed to different acidic neutralizing solutions following chemical dissociation. The aggregates were dissociated into a single cell suspension using an NaOH based dissociation solution. Acidic neutralizing solutions generated using a variety of acids (listed in table) were then added to counteract the high pH of the dissociation medium. Cell counts and viabilities were determined by trypan blue exclusion. Cells were serially subcultured for 4 passages in 25 cm^2 tissue culture flasks containing 5 mL of PPRF-m4 medium. The flasks were maintained in a humidified 37° C. incubator containing 5% CO2 (Average values, n=3).
(§7) All of the experiments conducted to test the effect of different neutralizing solutions employed an NaOH based dissociation medium to dissociate the cells.
(§8) Passage 3 mouse neurospheres originally procured from the striata of 14 day old embryonic mice were thawed and passaged twice (passage 5) in PPRF-m4 medium. These neuropsheres samples were previously dissociated by mechanical dissociation at each passage prior to being used for the experiments described here. Passage 5 mouse neurospheres were isolated and centrifuged (10 minutes, 140 g) to form a cell pellet in a 15 mL centrifuge tube. The supernatant was completely removed. The aggregates were then resuspended in 200 μL of fresh PPRF-m4 medium at room temperature by pipetting the cell pellet 5 times. 200 μL of an NaOH based alkaline dissociation medium was then added to the tube, and a stopwatch was used to time the procedure for 7 minutes. After 2 minutes and 5 minutes had elapsed, the cells were gently pipetted 5 times. After 7 minutes had elapsed, 200 μL of an acidic neutralizing medium was added to the mixture to decrease the pH, and the sample was gently pipetted 5 more times. […] The cell concentration and viability of the resulting cell suspension was determined using trypan blue exclusion, and the single cells were inoculated at 7.5×10^5 cells/mL into 25 cm^2 tissue culture flasks to determine if the neutralizing solution inhibited the cells from proliferating (Table 3). The cells were subsequently serially subcultured using the same neutralizing solution to which they had previously been exposed.
The test system of series [2] is mouse neurospheres. As to the kind of experiment: Different acidic neutralizing solutions after NaOH dissociation of mouse neurospheres; trypan blue exclusion, serial subculture. The following applies: for Average Viable Cell Conc.: NaOH dissociation, acid as neutralizing solution; for Average Viable Cell Conc. / Average Cell Viability: n=3; for Average Cell Viability: trypan blue exclusion.
Protocol: as §6, §7, §8

Series [3] has as its system mouse embryonic stem cells. Description: Detachment and dissociation of mouse embryonic stem cells using different bases in PBS with 10 mM EDTA; trypan blue exclusion. The settings on record: for Average Viable Cell Conc.: base in 1×PBS with 10 mM EDTA; for Average Viable Cell Conc. / Average Cell Viability: n=3; for Fold Increase in number of viable cells: inoculated at 3.13×10^4 cells/mL; for Average Cell Viability: trypan blue exclusion. As for the experimental part:
(§1) A total of five different dissociation solutions were tested for their ability to detach and dissociate mouse embryonic stem cells. Each solution was made by adding a different base to a basal solution (1×PBS solution containing 10 mM EDTA).
(§2) A volume of 2.0 mL of the appropriate dissociation solution was then added to each 25 cm^2 tissue culture flask, and the flasks were placed in an incubator at 37° C. The flasks were rocked intermittently over a period of 22 minutes after which gentle pipetting was used to break up any remaining clumps of cells. The cell suspension was collected and added to a sterile 15 mL tube containing 5.0 mL of medium and then centrifuged for 5 minutes at 1000 rpm. […] After centrifugation, the supernatant was discarded and the pellet was resuspended in 1.0 mL of medium.

A short description of series [4]: in vitro. The following applies: mouse, Average Cell Viability. As for the experimental part: as §1, §2
The source holds these as a separate data set.

Series [5] in a line: in vitro. The following applies: mouse, Average Cell Viability. As to the method: (§3) Table 2. […] Following dissociation, the pH was reduced by using neutralizing solution generated using HCl.
(§4) In order to counteract the pH effect of the alkaline dissociation solutions on the cells, an appropriate quantity of acidic medium was added.
(§5) The supernatant was completely removed. […] A volume of 200 μL was added to those samples dissociated with sodium hydroxide, potassium hydroxide or sodium phosphate tribasic dodecahydrate. A volume of 300 μL was added to those samples dissociated using ammonium hydroxide. […] Following the addition of the acidic medium, the cell sample was gently pipetted 5 more times.
This is another data set of the same source.

The test system of series [6] is mouse neurospheres. Description: Dissociation of mouse neurospheres using different alkaline solutions; trypan blue exclusion, serial subculture. The settings on record: for Average Viable Cell Conc.: base in PPRF-m4, neutralized with HCl; for Average Viable Cell Conc. / Average Cell Viability: n=3; for Fold Increase in number of viable cells: inoculated at 0.75×10^5 cells/mL; for Average Cell Viability: trypan blue exclusion. As to the method: as §3, §4, §5

Structures can show the parent of a compound that is named as a salt.

With `CC(=O)O` [Acetic Acid, acetic acid], in “in vitro [1]”, the viability turned out to be 91%. The “Fold Increase in number of viable cells” value was 13 in the series with mouse neurospheres [2] (passage 1), 20 in the series with mouse neurospheres [2] (passage 2), 10 in the series with mouse neurospheres [2] (passage 3) and 17 in the series on mouse neurospheres [2] (passage 4). The “Average Viable Cell Conc.” value in the series with mouse neurospheres [2] (passage 1) was 9.6 10^5 cells/mL; in the series with mouse neurospheres [2] (passage 2), 14.3 10^5 cells/mL; in the series on mouse neurospheres [2] (passage 3), 7.2 10^5 cells/mL; in the series on mouse neurospheres [2] (passage 4), 12.8 10^5 cells/mL.

Consider `N` [Ammonium Hydroxide, ammonium hydroxide], for which the “Average Viable Cell Conc.” value in series [3] (passage 1) is 4.1 10^5 cells/mL; in series [3] (passage 2), 1.4 10^5 cells/mL; in series [3] (passage 3) it was 2.7 10^5 cells/mL; in series [3] (passage 4), 5.1 10^5 cells/mL; with mouse neurospheres [6] (passage 1) it was 6.2 10^5 cells/mL; in the series with mouse neurospheres [6] (passage 2) it was 8.4 10^5 cells/mL. Besides, the “Average Viable Cell Conc.” value is listed as 10.5 10^5 cells/mL in the series with mouse neurospheres [6] (passage 3) and 9.1 10^5 cells/mL in the series on mouse neurospheres [6] (passage 4). The “Fold Increase in number of viable cells” value in series [3] (passage 1) was 13; in series [3] (passage 2) it was 4; in series [3] (passage 3), 8; in series [3] (passage 4), 16; in the series with mouse neurospheres [6] (passage 1) it was 8; in the series with mouse neurospheres [6] (passage 2) it was 11. The “Fold Increase in number of viable cells” value in the series on mouse neurospheres [6] (passage 3) is 14; in the series with mouse neurospheres [6] (passage 4), 12. Besides, the viability at 22 min, 9.9 mM in “in vitro [4]” came to 84%. In addition, the viability at 7 min, 23.8 mM in “in vitro [5]” is 91%.

Take `Cl` [HCl, hydrochloric acid]: the “Fold Increase in number of viable cells” value came to 14 with mouse neurospheres [2] (passage 1), 17 in the series with mouse neurospheres [2] (passage 2), 12 in the series on mouse neurospheres [2] (passage 3) and 14 with mouse neurospheres [2] (passage 4). For the same compound, the “Average Viable Cell Conc.” value was 10.9 10^5 cells/mL in the series on mouse neurospheres [2] (passage 1), 12.7 10^5 cells/mL in the series with mouse neurospheres [2] (passage 2), 9.0 10^5 cells/mL with mouse neurospheres [2] (passage 3) and 10.2 10^5 cells/mL in the series on mouse neurospheres [2] (passage 4). Moreover, the “Average Cell Viability” value with mouse neurospheres [2] (passage 1) was 91%; in the series on mouse neurospheres [2] (passage 2), 92%; with mouse neurospheres [2] (passage 3), 92%; in the series with mouse neurospheres [2] (passage 4) it was 89%.

Consider `[K+].[OH-]` [KOH, potassium hydroxide], for which the “Average Viable Cell Conc.” value in series [3] (passage 1) was 4.3 10^5 cells/mL; in series [3] (passage 2), 1.8 10^5 cells/mL; in series [3] (passage 3), 3.2 10^5 cells/mL; in series [3] (passage 4), 4.4 10^5 cells/mL; in the series with mouse neurospheres [6] (passage 1), 7.1 10^5 cells/mL; in the series on mouse neurospheres [6] (passage 2), 8.7 10^5 cells/mL. In addition, the “Average Viable Cell Conc.” value is reported as 13.9 10^5 cells/mL in the series with mouse neurospheres [6] (passage 3) and 19.0 10^5 cells/mL with mouse neurospheres [6] (passage 4). Moreover, the “Fold Increase in number of viable cells” value in series [3] (passage 1) was 14; in series [3] (passage 2) it was 6; in series [3] (passage 3) it was 10; in series [3] (passage 4), 14; with mouse neurospheres [6] (passage 1), 9.4; with mouse neurospheres [6] (passage 2), 12. Besides, the “Fold Increase in number of viable cells” value in the series with mouse neurospheres [6] (passage 3) is 18; with mouse neurospheres [6] (passage 4), 25. Further, the “Average Cell Viability” value in series [3] (passage 1) was 89%; in series [3] (passage 2), 86%; in series [3] (passage 3), 81%; in series [3] (passage 4) it was 81%; in the series on mouse neurospheres [6] (passage 1) it was 81%; with mouse neurospheres [6] (passage 2), 85%. The “Average Cell Viability” value with mouse neurospheres [6] (passage 3) was found to be 9%; in the series on mouse neurospheres [6] (passage 4), 93%.

As to `[Na+].[OH-]` [NaOH, sodium hydroxide], the “Average Viable Cell Conc.” value in series [3] (passage 1) was 3.6 10^5 cells/mL; in series [3] (passage 2), 6.2 10^5 cells/mL; in series [3] (passage 3), 7.5 10^5 cells/mL; in series [3] (passage 4), 5.7 10^5 cells/mL; in the series with mouse neurospheres [6] (passage 1), 8.7 10^5 cells/mL; in the series with mouse neurospheres [6] (passage 2) it was 12.9 10^5 cells/mL. In addition, the figures for the “Average Viable Cell Conc.” value in the series with mouse neurospheres [6] (passage 3) and in the series on mouse neurospheres [6] (passage 4) were 8.8 10^5 cells/mL and 13.9 10^5 cells/mL, respectively. In addition, the “Fold Increase in number of viable cells” value in series [3] (passage 1) worked out at 12; in series [3] (passage 2), 20; in series [3] (passage 3), 24; in series [3] (passage 4), 18; in the series with mouse neurospheres [6] (passage 1), 12; with mouse neurospheres [6] (passage 2) it was 17. The “Fold Increase in number of viable cells” value in the series on mouse neurospheres [6] (passage 3) stood at 12; with mouse neurospheres [6] (passage 4) it was 18.

Consider `O=P(O)(O)O` [Phosphoric Acid, phosphoric acid], for which, in “in vitro [1]”, the viability was found to be 91%. Moreover, the “Fold Increase in number of viable cells” value in the series on mouse neurospheres [2] (passage 1) amounted to 15; in the series on mouse neurospheres [2] (passage 2), 23; in the series with mouse neurospheres [2] (passage 3), 6; with mouse neurospheres [2] (passage 4), 16. The “Average Viable Cell Conc.” value in the series on mouse neurospheres [2] (passage 1) was 11.5 10^5 cells/mL; in the series with mouse neurospheres [2] (passage 2), 17.3 10^5 cells/mL; with mouse neurospheres [2] (passage 3), 4.2 10^5 cells/mL; in the series with mouse neurospheres [2] (passage 4) it was 11.8 10^5 cells/mL.

On to `O=C([O-])[O-].[Na+].[Na+]` [Sodium Carbonate, sodium carbonate], for which the “Average Viable Cell Conc.” value in series [3] (passage 1) is 3.7 10^5 cells/mL; in series [3] (passage 2), 3.6 10^5 cells/mL; in series [3] (passage 3), 7.7 10^5 cells/mL; in series [3] (passage 4), 6.8 10^5 cells/mL; in the series with mouse neurospheres [6] (passage 1), 7.7 10^5 cells/mL; in the series with mouse neurospheres [6] (passage 2) it was 11.4 10^5 cells/mL. Further, the “Average Viable Cell Conc.” value in the series with mouse neurospheres [6] (passage 3) is reported as 11.1 10^5 cells/mL; in the series with mouse neurospheres [6] (passage 4), 8.7 10^5 cells/mL.

Turning to `O.O.O.O.O.O.O.O.O.O.O.O.O=P([O-])([O-])[O-].[Na+].[Na+].[Na+]` [Sodium Phosphate, sodium phosphate tribasic dodecahydrate], the “Average Viable Cell Conc.” value in series [3] (passage 1) is reported as 4.2 10^5 cells/mL; in series [3] (passage 2), 2.0 10^5 cells/mL; in series [3] (passage 3) it was 4.1 10^5 cells/mL; in series [3] (passage 4), 6.7 10^5 cells/mL; with mouse neurospheres [6] (passage 1), 11.5 10^5 cells/mL; with mouse neurospheres [6] (passage 2), 7.3 10^5 cells/mL. The “Average Viable Cell Conc.” value in the series with mouse neurospheres [6] (passage 3) is 13.9 10^5 cells/mL; with mouse neurospheres [6] (passage 4) it was 10.2 10^5 cells/mL. The “Fold Increase in number of viable cells” value in series [3] (passage 1) came out at 14; in series [3] (passage 2) it was 6; in series [3] (passage 3), 13; in series [3] (passage 4), 21; with mouse neurospheres [6] (passage 1), 15; in the series with mouse neurospheres [6] (passage 2), 10. Also, the “Fold Increase in number of viable cells” value with mouse neurospheres [6] (passage 3) turned out to be 18; with mouse neurospheres [6] (passage 4), 14. For the same compound, the “Average Cell Viability” value was found to be 88% in series [3] (passage 1); 91% in series [3] (passage 2); 87% in series [3] (passage 3); 84% in series [3] (passage 4); 87% with mouse neurospheres [6] (passage 1); 89% in the series with mouse neurospheres [6] (passage 2). Further, the “Average Cell Viability” value with mouse neurospheres [6] (passage 3) is on record as 89%; in the series on mouse neurospheres [6] (passage 4), 93%.

Compound `O=S(=O)(O)O` [Sulfuric Acid, sulfuric acid] came in with a viability in “in vitro [1]” of 89%. For the same compound, the “Fold Increase in number of viable cells” value was 14 in the series on mouse neurospheres [2] (passage 1), 18 in the series with mouse neurospheres [2] (passage 2), 8 with mouse neurospheres [2] (passage 3) and 15 with mouse neurospheres [2] (passage 4). Also, the “Average Viable Cell Conc.” value is listed as 10.5 10^5 cells/mL in the series with mouse neurospheres [2] (passage 1), 13.1 10^5 cells/mL with mouse neurospheres [2] (passage 2), 6.1 10^5 cells/mL with mouse neurospheres [2] (passage 3) and 11.3 10^5 cells/mL in the series with mouse neurospheres [2] (passage 4).

One may read the viability as a read-out of living cells in per cent, often relative to untreated cells. A lower viability goes with a greater loss of cells.
